Test results as given in PubChem BioAssay AID248 (DTP/NCI, 2004).
Several values for one entry are separate records, joined by “and”; a condition that tells them apart may be missing. Equal entries are not always repeated. Inconclusive results and toxic doses are left out. Cut-off read from the data, not from the text of the source: active = T/C of 150% or more; inactive = T/C below 125%.

Tested on: L1210 leukemia ip in BDF1 mice, survival T/C
Assay: NCI In Vivo Anticancer Drug Screen. Data for tumor model L1210 Leukemia (intraperitoneal) in B6D2F1 (BDF1) mice
Conditions: endpoint: mean survival time, higher = longer survival
How it was run: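 Transplantable tumor model; survival measured in treated vs vehicle control mice. Value = treated/control.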

[1] = dose: 100.0 mg/kg/injection, schedule: Q01DX009 (ip), vehicle: Klucel (hydroxypropylcellulose) (HPC)
[2] = dose: 200.0 mg/kg/injection, schedule: Q01DX009 (ip), vehicle: Klucel (hydroxypropylcellulose) (HPC)
[3] = dose: 400.0 mg/kg/injection, schedule: Q01DX009 (ip), vehicle: Klucel (hydroxypropylcellulose) (HPC)
[4] = dose: 100.0 mg/kg/injection, schedule: Q01DX009 (ip), vehicle: saline
[5] = dose: 100.0 mg/kg/injection, schedule: Q04DX003 (ip), vehicle: saline
[6] = dose: 200.0 mg/kg/injection, schedule: Q01DX009 (ip), vehicle: saline
[7] = dose: 200.0 mg/kg/injection, schedule: Q04DX003 (ip), vehicle: saline
[8] = dose: 400.0 mg/kg/injection, schedule: Q04DX003 (ip), vehicle: saline
[9] = dose: 100.0 mg/kg/injection, schedule: Q04DX003 (ip), vehicle: Klucel (hydroxypropylcellulose) (HPC)
[10] = dose: 200.0 mg/kg/injection, schedule: Q04DX003 (ip), vehicle: Klucel (hydroxypropylcellulose) (HPC)
[11] = dose: 400.0 mg/kg/injection, schedule: Q04DX003 (ip), vehicle: Klucel (hydroxypropylcellulose) (HPC)
[12] = dose: 50.0 mg/kg/injection, schedule: Q01DX009 (ip), vehicle: saline
[13] = dose: 100.0 mg/kg/injection, schedule: Q01DX001 (ip), vehicle: carboxymethylcellulose (CMC)
[14] = dose: 200.0 mg/kg/injection, schedule: Q01DX001 (ip), vehicle: carboxymethylcellulose (CMC)
[15] = dose: 400.0 mg/kg/injection, schedule: Q01DX001 (ip), vehicle: carboxymethylcellulose (CMC)
[16] = dose: 100.0 mg/kg/injection, schedule: Q01DX001 (ip), vehicle: saline
[17] = dose: 200.0 mg/kg/injection, schedule: Q01DX001 (ip), vehicle: saline
[18] = dose: 400.0 mg/kg/injection, schedule: Q01DX001 (ip), vehicle: saline
[19] = dose: 100.0 mg/kg/injection, schedule: Q04DX002 (ip), vehicle: saline with Tween-80
[20] = dose: 200.0 mg/kg/injection, schedule: Q04DX002 (ip), vehicle: saline with Tween-80
[21] = dose: 400.0 mg/kg/injection, schedule: Q04DX002 (ip), vehicle: saline with Tween-80
[22] = dose: 100.0 mg/kg/injection, schedule: Q01DX001 (ip), vehicle: saline with Tween-80
[23] = dose: 100.0 mg/kg/injection, schedule: Q04DX003 (ip), vehicle: saline with Tween-80
[24] = dose: 200.0 mg/kg/injection, schedule: Q01DX001 (ip), vehicle: saline with Tween-80
[25] = dose: 200.0 mg/kg/injection, schedule: Q01DX009 (ip), vehicle: saline with Tween-80
[26] = dose: 200.0 mg/kg/injection, schedule: Q04DX003 (ip), vehicle: saline with Tween-80
[27] = dose: 400.0 mg/kg/injection, schedule: Q01DX001 (ip), vehicle: saline with Tween-80
[28] = dose: 400.0 mg/kg/injection, schedule: Q01DX009 (ip), vehicle: saline with Tween-80
[29] = dose: 400.0 mg/kg/injection, schedule: Q04DX003 (ip), vehicle: saline with Tween-80
[30] = dose: 100.0 mg/kg/injection, schedule: Q01DX009 (ip), vehicle: saline with Tween-80

Measured: T/C

CC1=NC(C#N)=C(C#N)N=C(c2ccccc2)C1
inactive: dose: 100.0 mg/kg/injection, schedule: Q01DX009 (ip), vehicle: gum acacia 99 % of control | dose: 200.0 mg/kg/injection, schedule: Q01DX009 (ip), vehicle: gum acacia 91 % of control

COc1ccc(OC)c(NC(=O)NC(C)(C)C)c1
inactive: [1] 101 % of control | [2] 103 % of control | [3] 88 % of control

Cc1cccc(C)c1Nc1cc(=O)[nH]c(=O)[nH]1
inactive: dose: 75.0 mg/kg/injection, schedule: Q01DX001 (ip), vehicle: saline with Tween-80 106 % of control | dose: 150.0 mg/kg/injection, schedule: Q01DX001 (ip), vehicle: saline with Tween-80 89 % of control | dose: 300.0 mg/kg/injection, schedule: Q01DX001 (ip), vehicle: saline with Tween-80 96 % of control

c1ccc2c(c1)CC(=[N+]1CCCCC1)Cc1ccccc1-2
inactive: [4] 92 % of control | [5] 103 % of control | [6] 92 % of control | [7] 89 % of control | [8] 87 % of control

Cc1ccc(C(=O)NS(=O)(=O)c2ccc(C)cc2)cc1
inactive: [1] 91 % of control | [9] 101 % of control | [2] 105 % of control | [10] 103 % of control | [11] 104 % of control

CC(C)[CH2][Sn](=[O])[OH]
inactive: [12] 96 % of control | [4] 100 % of control | [6] 100 % of control

COC(=O)CCCCCNC(=O)NCCCCCC(=O)OC
inactive: [1] 90 % of control | [9] 95 % of control | [2] 87 % of control | [10] 93 % of control | [3] 90 % of control | [11] 93 % of control

COc1cccc(/C(C)=N\OC(=O)N(C)C)c1
inactive: [13] 95 % of control | [14] 95 % of control | [15] 98 % of control

Nc1ccc(/C=C/c2ccnc3ccccc23)cc1
inactive: dose: 0.5 mg/kg/injection, schedule: Q01DX015 (ip), vehicle: saline 101 % of control | dose: 1.0 mg/kg/injection, schedule: Q01DX015 (ip), vehicle: saline 101 % of control | dose: 2.0 mg/kg/injection, schedule: Q01DX015 (ip), vehicle: saline 101 % of control | dose: 4.0 mg/kg/injection, schedule: Q01DX015 (ip), vehicle: saline 101 % of control | dose: 50.0 mg/kg/injection, schedule: Q01DX001 (ip), vehicle: saline 95 % of control | [16] 97 % of control | [17] 95 % of control | [18] 105 % of control

C#CC1(O)CCCCCC1
inactive: [19] 95 % of control | [20] 100 % of control | [21] 92 % of control

CC(=O)Nc1ccc(NC(=O)/C=C/c2ccccc2)cc1
inactive: [1] 103 % of control | [2] 95 % of control | [3] 105 % of control

COc1cc2cccccc-2cc1=O
inactive: dose: 50.0 mg/kg/injection, schedule: Q01DX009 (ip), vehicle: other 104 % of control | dose: 100.0 mg/kg/injection, schedule: Q01DX009 (ip), vehicle: other 89 % of control | [9] 103 % of control | dose: 200.0 mg/kg/injection, schedule: Q01DX009 (ip), vehicle: other 101 % of control | [10] 97 % of control | [11] 103 % of control

Cc1ccc(N2CCN(CCCN3CCN(c4ccc(Cl)cc4)CC3)CC2)cc1
inactive: dose: 8.0 mg/kg/injection, schedule: Q01DX Z (ip), vehicle: carboxymethylcellulose (CMC) 98 % of control | dose: 16.0 mg/kg/injection, schedule: Q01DX Z (ip), vehicle: carboxymethylcellulose (CMC) 95 % of control | [9] 109 % of control

COc1ccc(OCCS(=O)(=O)C(CCOS(C)(=O)=O)COS(C)(=O)=O)cc1 (stereo not drawn)
inactive: [1] 96 % of control | [2] 93 % of control | [3] 98 % of control

O=S(c1ccccc1)c1ccc2cccccc1-2 (stereo not drawn)
inactive: [13] 91 % of control | [14] 94 % of control | [15] 100 % of control

N#Cc1ccc(C(=O)C=C(C(F)(F)F)C(F)(F)F)cc1
inactive: dose: 6.25 mg/kg/injection, schedule: Q01DX009 (ip), vehicle: other 95 % of control | dose: 12.5 mg/kg/injection, schedule: Q01DX009 (ip), vehicle: other 98 % of control

C/C=C/C(=O)OCCN(CC)CC
inactive: [12] 103 % of control | [4] 103 % of control | [6] 100 % of control

Nc1nc(N)n(Cc2ccc3c(c2)OCO3)n1
inactive: [22] 106 % of control | [23] 104 % of control | [24] 104 % of control | [25] 87 % of control | [26] 101 % of control | [27] 108 % of control | [28] 101 % of control | [29] 102 % of control

O=C(CCNC(=O)OCc1ccccc1)NC(Cc1ccccc1)C(=O)OCc1ccccc1 (stereo not drawn)
inactive: [23] 103 % of control | [26] 97 % of control | [29] 95 % of control

O=c1cc(O)nc2ccccn12
inactive: [1] 99 % of control | [9] 95 % of control | [2] 97 % of control | [10] 96 % of control | [3] 92 % of control | [11] 91 % of control

CCOC(=O)C1CC1(C)Br (stereo not drawn)
inactive: dose: 3.13 mg/kg/injection, schedule: Q04DX002 (ip), vehicle: saline with Tween-80 97 % of control | dose: 6.25 mg/kg/injection, schedule: Q04DX002 (ip), vehicle: saline with Tween-80 87 % of control | dose: 25.0 mg/kg/injection, schedule: Q04DX002 (ip), vehicle: saline with Tween-80 87 % of control | [19] 90 % of control

CN1CCCN(C)C1
inactive: dose: 50.0 mg/kg/injection, schedule: Q01DX009 (ip), vehicle: saline with Tween-80 100 % of control | [30] 100 % of control | [23] 93 % of control | [26] 88 % of control

Nc1nc(N)nc(-c2ccc(NC(=O)c3ccccc3[N+](=O)[O-])cc2)n1
inactive: dose: 50.0 mg/kg/injection, schedule: Q04DX003 (ip), vehicle: Klucel (hydroxypropylcellulose) (HPC) 100 % of control | dose: 100.0 mg/kg/injection, schedule: Q01DX001 (ip), vehicle: Klucel (hydroxypropylcellulose) (HPC) 97 % of control | [9] 106 % of control | dose: 200.0 mg/kg/injection, schedule: Q01DX001 (ip), vehicle: Klucel (hydroxypropylcellulose) (HPC) 95 % of control | [10] 103 % of control

CC(O)C1CCCNC1 (stereo not drawn)
inactive: [5] 108 % of control | [7] 97 % of control

C1CCC2CC3CCCCC3CC2C1 (stereo not drawn)
inactive: [16] 90 % of control | [18] 102 % of control

CC(CC(=O)O)NC(=O)OCc1ccccc1 (stereo not drawn)
inactive: [22] 101 % of control | [30] 100 % of control and 107 % of control | [23] 103 % of control | [24] 98 % of control | [25] 97 % of control and 90 % of control | [26] 94 % of control | [27] 95 % of control | [28] 100 % of control and 90 % of control | [29] 97 % of control

Cc1cc2ccccc2c(N)c1C#N
inactive: [30] 102 % of control and 106 % of control | [19] 93 % of control and 100 % of control | [25] 92 % of control and 90 % of control | [20] 91 % of control | [28] 95 % of control | [21] 100 % of control and 88 % of control

C1CNC(NC23CC4CC(CC(C4)C2)C3)=N1
inactive: [1] 98 % of control

CCCCSc1n[nH]c(=O)[nH]c1=O
inactive: [16] 113 % of control | [17] 92 % of control | [18] 95 % of control

O=C(O)CN1C(=O)C2C3CCC(O3)C2C1=O (stereo not drawn)
inactive: [5] 107 % of control | [7] 98 % of control | [8] 98 % of control

CCCCCCCCC(CCCCCCCC)CCC1CCCCC1
inactive: dose: 100.0 mg/kg/injection, schedule: Q01DX001 (ip), vehicle: saline + alcohol 95 % of control | dose: 200.0 mg/kg/injection, schedule: Q01DX001 (ip), vehicle: saline + alcohol 108 % of control | dose: 400.0 mg/kg/injection, schedule: Q01DX001 (ip), vehicle: saline + alcohol 100 % of control
